# What was measured:
# [1] = Dose escalation study: tolerability and safety (DLT, MTD, treatment emergent adverse events) of orally administered Compound A 1.5 succinate in patients with solid tumor; format: in vivo
# Protocol: The following study was carried out in order to evaluate tolerability and safety when Compound A 1.5 succinate was orally administered to patients with solid tumor. We attempted to determine the maximum tolerated dose (MTD) by evaluating the dose limiting toxicity (DLT) when Compound A 1.5 succinate was orally administered to patients with solid tumor. Each dose in Examples is represented as a dose of Compound A in free form.
# A Modified Toxicity Probability Interval (mTPI) design was employed to determine the MTD of Compound A. Each subject was assigned a dose of Compound A in accordance with the rules of the mTPI design based on a target dose-limiting toxicity (DLT) rate of 25% and the corresponding three toxicity probability intervals that was defined as 20 to 30% (proper dosing), 0 to 20% (underdosing) and 30 to 100% (overdosing). The entire dose assignment decision rule can be precalculated under the mTPI design and presented in two-way table as below.
# In order to evaluate the PK when administered as a single dose, a single dose of Compound A for each treatment group (at the corresponding dosage for that group) was administered on Day 1. Compound A was administered when fasted, immediately after waking up with at least 10 hours fasting. Taking any meal was prohibited for 2 hours after administration and only drinking water was allowed.
# Cycle 1 was started between 8 and 10 days after dosing in Cycle 0 and Compound A was administered continuously once daily. Compound A was administered at least 2 hours after breakfast, and any food intake was prohibited for 1 hour after administration. However, on Day 8 of Cycle 1, Compound A was administered immediately after waking up while the subject was fasted after at least 10 hours of overnight fasting in order to evaluate the PK. Taking any meals was prohibited for 2 hours after administration and only drinking water was allowed.
# • (1) Grade 4 neutropenia that persists for more than 7 days or febrile neutropenia • (2) Grade 4 thrombocytopenia or Grade 3 thrombocytopenia that requires blood transfusion • (3) Any Grade 3 or higher non-hematological toxicity with the exception of: • a) Abnormal clinical laboratory values with no clinical significance. • b) Any events which can be managed and controlled to Grade 2 or less by maximal medical management. • (4) New calcification that is considered clinically significance in such as soft tissue, kidney, intestine, heart or lung confirmed by images • (5) Hyperphosphatemia defined as follows • a) >7 mg/dL>7d despite phosphate lowering therapies • b) >9 mg/dL despite phosphate lowering therapies. • (6) Development of any toxicity that is considered to be related to Compound A and where treatment interruption for 8 days or more from Cycle 0 to Cycle 1 is necessary.
# The MTD was not defined and the recommended dose was determined to be 140 mg once daily.
# [2] = tested on: FGFR2 gene amplified diffused type gastric cancer; experiment: Anti-tumor activity, tumor size on CT images, patient; format: in vivo, human; details: 180 mg once daily, one patient, Day 1 of Cycle 3 vs before administration
# Protocol: Compound A was administered once daily at 180 mg to a patient with FGFR2 gene amplified diffused type gastric cancer (poorly differentiated adenocarcinoma). The left image is that before the administration and the right image is that on Day 1 of Cycle 3.
# [3] = tested on: FGFR2-fusion gene positive intrahepatic cholangiocarcinoma; experiment: Anti-tumor activity, tumor size, patient; format: in vivo, human; details: 30 mg once daily, one patient, FGFR2-fusion gene positive (78%)
# Protocol: When Compound A was administered once daily at 30 mg to a patient with FGFR2-fusion gene positive (78%) intrahepatic cholangiocarcinoma, the tumor size reduced by about 9%.
# [4] = tested on: FGFR pathway; experiment: Pharmacodynamics: serum Phosphate, FGF23 and 1,25-(OH)2-Vitamin D, PD markers of FGFR pathway inhibition; format: in vivo, human
# Protocol: Serum concentrations of Phosphate, FGF23 and 1,25-(OH)2-Vitamin D, PD markers of FGFR pathway inhibition were measured before the administration of Compound A and on Day 15 of Cycle 1.
# [5] = tested on: fibroblast growth factor receptors (FGFRs) 1, 2 and 3; details: reported in PTL 1; cited from earlier work
# [6] = tested on: stomach cancer, lung cancer, bladder cancer, endometrial cancer, bile duct cancer, breast cancer; details: endometrial cancer (PTL 1), bile duct cancer (PTL 2), breast cancer (PTL 3); cited from earlier work
smiles,measurement,setting,value
"CNC(=O)n1ccc2cc(Oc3ccnc(NC(=O)c4ccc(C5CCN(CCO)CC5)cc4)c3)c(OCCOC)cc21 [Compound A, 5-((2-(4-(1-(2-hydroxyethyl)piperidin-4-yl)benzamide)pyridin-4-yl)oxy)-6-(2-methoxyethoxy)-N-methyl-1H-indole-1-carboxamide]",death or adverse events leading to study drug withdrawal,[1]; all cohorts,No death or adverse events leading to study drug withdrawal were reported
same,"ALP increased, Any Gr, n (%)","[1]; human, in vivo",3 (13)
same,"AST increased, Any Gr, n (%)","[1]; human, in vivo",4 (17)
same,"ATL increased, Any Gr, n (%)","[1]; human, in vivo",6 (25)
same,"ATL increased, ≥Gr3, n (%)","[1]; human, in vivo",2 (8)
same,"Anaemia, Any Gr, n (%)","[1]; human, in vivo",3 (13)
same,"Constipation, Any Gr, n (%)","[1]; human, in vivo",2 (8)
same,"Creatinine increased, Any Gr, n (%)","[1]; human, in vivo",9 (38)
same,"Decreased appetite, Any Gr, n (%)","[1]; human, in vivo",2 (8)
same,"Decreased appetite, ≥Gr3, n (%)","[1]; human, in vivo",1 (4)
same,"Diarrhoea, Any Gr, n (%)","[1]; human, in vivo",6 (25)
same,"Dysgeusia, Any Gr, n (%)","[1]; human, in vivo",3 (13)
same,"Hyperphosphatemia, Any Gr, n (%)","[1]; human, in vivo",9 (38)
same,"Lipase increased, Any Gr, n (%)","[1]; human, in vivo",5 (21)
same,"Lymphocyte count decreased, Any Gr, n (%)","[1]; human, in vivo",2 (8)
same,"Malaise, Any Gr, n (%)","[1]; human, in vivo",2 (8)
same,"Nausea, Any Gr, n (%)","[1]; human, in vivo",5 (21)
same,"Neutrophil count decreased, Any Gr, n (%)","[1]; human, in vivo",2 (8)
same,"Neutrophil count decreased, ≥Gr3, n (%)","[1]; human, in vivo",1 (4)
same,"Onychomadesis, Any Gr, n (%)","[1]; human, in vivo",2 (8)
same,"PPE syndrome, Any Gr, n (%)","[1]; human, in vivo",4 (17)
same,"Retinal detachment, Any Gr, n (%)","[1]; human, in vivo",3 (13)
same,"Stomatitis, Any Gr, n (%)","[1]; human, in vivo",2 (8)
same,"Vomiting, Any Gr, n (%)","[1]; human, in vivo",3 (13)
same,"Vomiting, ≥Gr3, n (%)","[1]; human, in vivo",1 (4)
same,"White blood cell count decreased, Any Gr, n (%)","[1]; human, in vivo",2 (8)
same,adverse events leading to dose interruptions: anorexia,"[1]; human, in vivo",2 patients
same,adverse events leading to dose interruptions: common cold,"[1]; human, in vivo",1 patient
same,adverse events leading to dose interruptions: macular edema,"[1]; human, in vivo",1 patient
same,adverse events leading to dose interruptions: nausea,"[1]; human, in vivo",3 patients
same,adverse events leading to dose interruptions: neutrophil count decreased,"[1]; human, in vivo",1 patient
same,adverse events leading to dose interruptions: palmar-plantar erythrodysesthesia syndrome,"[1]; human, in vivo",1 patient
same,adverse events leading to dose interruptions: pyrexia,"[1]; human, in vivo",2 patients
same,adverse events leading to dose interruptions: vomiting,"[1]; human, in vivo",2 patients
same,adverse events leading to dose reductions: ALT increased,"[1]; human, in vivo",2 patients
same,adverse events leading to dose reductions: AST increased,"[1]; human, in vivo",1 patient
same,adverse events leading to dose reductions: palmar-plantar erythrodysesthesia syndrome,"[1]; human, in vivo",2 patients
same,dose limiting toxicity (DLT),"[1]; human, in vivo",one patient at 180 mg dosing experienced the DLT (Grade 3 AST/ALT increased)
same,recommended dose,"[1]; human, in vivo",140 mg
same,relation of serious adverse events to study drug,"[1]; human, in vivo",none of them were considered to be related to Compound A
same,maximum tolerated dose (MTD),[1]; once-daily dosing up to 180 mg,not defined
same,tumor size,[2],reduced significantly
same,tumor size reduction,[3],about 9%
same,once-daily dosing at which increases of PD markers reached maximum,[4]; Day 15 of Cycle 1,100 to 140 mg
same,"change in serum Phosphate, FGF23 and 1,25-(OH)2-Vitamin D",[4]; Day 15 of Cycle 1 vs before administration,dose-dependent increases in each marker
same,"inhibitory activity on FGFRs 1, 2 and 3",[5],has an inhibitory activity
same,cell growth suppressing activity,[6],has a cell growth suppressing activity
